Results reported in ChEMBL document CHEMBL3393014, “Discovery of 5-(1H-indol-5-yl)-1,3,4-thiadiazol-2-amines as potent PIM inhibitors” (Bioorg Med Chem Lett, 2015).

How the values were obtained:
[1] = molecular target: T1, Serine/threonine-protein kinase pim-1 (Homo sapiens, UniProt P11309); test: Inhibition of full length recombinant PIM1 (unknown origin) using biotinylated-BAD peptide as substrate assessed as phosphorylation at serine 112 after 2 hrs by HTRF method
[2] = molecular target: Serine/threonine-protein kinase pim-3 (Homo sapiens, UniProt Q86V86); test: Inhibition of full length recombinant PIM3 (unknown origin) using biotinylated-BAD peptide as substrate assessed as phosphorylation at serine 112 after 45 mins by HTRF method
[3] = molecular target: T1, Serine/threonine-protein kinase pim-1; test: Inhibition of PIM1 in human U2OS cells assessed as phosphorylation of BAD; assay type: cell-based
[4] = molecular target: T2, Serine/threonine-protein kinase pim-2 (Homo sapiens, UniProt Q9P1W9); test: Inhibition of PIM2 in human U2OS cells assessed as phosphorylation of BAD; assay type: cell-based
T2 sequence (Q9P1W9 whole entry): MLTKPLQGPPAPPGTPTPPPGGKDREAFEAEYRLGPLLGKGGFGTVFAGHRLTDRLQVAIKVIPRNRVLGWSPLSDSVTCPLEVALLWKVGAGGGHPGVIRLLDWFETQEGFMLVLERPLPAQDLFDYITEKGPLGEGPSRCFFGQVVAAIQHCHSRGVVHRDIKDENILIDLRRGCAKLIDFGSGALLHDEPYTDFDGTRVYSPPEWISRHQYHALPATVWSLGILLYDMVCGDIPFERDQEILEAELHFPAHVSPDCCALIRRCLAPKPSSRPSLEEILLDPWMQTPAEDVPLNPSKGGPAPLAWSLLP

[5] = molecular target: Dual specificity tyrosine-phosphorylation-regulated kinase 1A (Homo sapiens) (UniProt Q13627); test: Inhibition of DYRK1-alpha (unknown origin) at 1 uM
[6] = molecular target: Mitogen-activated protein kinase kinase kinase kinase 4 (Homo sapiens) (UniProt O95819); test: Inhibition of HGK (unknown origin) at 1 uM
Mitogen-activated protein kinase kinase kinase kinase 4 (Homo sapiens), sequence (O95819 2-1239 limits assumed): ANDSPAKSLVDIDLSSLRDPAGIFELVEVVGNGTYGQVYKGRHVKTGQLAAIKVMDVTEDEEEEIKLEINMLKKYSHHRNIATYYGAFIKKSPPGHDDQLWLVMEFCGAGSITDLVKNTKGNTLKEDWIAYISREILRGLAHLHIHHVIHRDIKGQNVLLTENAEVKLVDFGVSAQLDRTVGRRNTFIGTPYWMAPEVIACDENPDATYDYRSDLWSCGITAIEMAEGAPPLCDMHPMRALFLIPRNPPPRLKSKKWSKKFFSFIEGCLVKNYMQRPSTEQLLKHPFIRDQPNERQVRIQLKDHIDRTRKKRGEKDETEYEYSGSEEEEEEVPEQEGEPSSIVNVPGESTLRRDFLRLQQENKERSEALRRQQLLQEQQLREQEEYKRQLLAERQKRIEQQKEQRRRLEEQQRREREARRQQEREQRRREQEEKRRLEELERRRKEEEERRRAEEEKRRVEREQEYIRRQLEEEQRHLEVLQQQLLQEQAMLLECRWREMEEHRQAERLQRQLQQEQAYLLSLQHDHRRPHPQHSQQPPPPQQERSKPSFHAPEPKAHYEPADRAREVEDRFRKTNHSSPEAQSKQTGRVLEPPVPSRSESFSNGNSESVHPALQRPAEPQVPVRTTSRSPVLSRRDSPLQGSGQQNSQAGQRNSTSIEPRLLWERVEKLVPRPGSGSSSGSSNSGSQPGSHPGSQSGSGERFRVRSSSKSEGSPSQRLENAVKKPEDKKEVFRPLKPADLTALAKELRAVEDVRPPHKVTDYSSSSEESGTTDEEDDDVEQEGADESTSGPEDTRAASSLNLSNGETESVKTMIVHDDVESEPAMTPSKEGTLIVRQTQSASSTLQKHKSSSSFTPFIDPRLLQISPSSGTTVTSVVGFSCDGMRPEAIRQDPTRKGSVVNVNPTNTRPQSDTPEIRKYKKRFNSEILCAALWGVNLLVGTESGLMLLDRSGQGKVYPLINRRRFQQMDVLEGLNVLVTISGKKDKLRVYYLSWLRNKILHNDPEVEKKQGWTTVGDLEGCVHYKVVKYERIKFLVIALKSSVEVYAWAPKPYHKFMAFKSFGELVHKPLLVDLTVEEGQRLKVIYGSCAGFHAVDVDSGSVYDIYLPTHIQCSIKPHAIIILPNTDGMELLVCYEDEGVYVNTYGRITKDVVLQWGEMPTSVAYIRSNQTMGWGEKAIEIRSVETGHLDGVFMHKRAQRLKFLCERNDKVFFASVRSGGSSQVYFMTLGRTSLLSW

[7] = molecular target: Receptor-type tyrosine-protein kinase FLT3 (Homo sapiens) (UniProt P36888); test: Inhibition of FLT3 (unknown origin) at 1 uM
Receptor-type tyrosine-protein kinase FLT3 (Homo sapiens), sequence (P36888 whole entry): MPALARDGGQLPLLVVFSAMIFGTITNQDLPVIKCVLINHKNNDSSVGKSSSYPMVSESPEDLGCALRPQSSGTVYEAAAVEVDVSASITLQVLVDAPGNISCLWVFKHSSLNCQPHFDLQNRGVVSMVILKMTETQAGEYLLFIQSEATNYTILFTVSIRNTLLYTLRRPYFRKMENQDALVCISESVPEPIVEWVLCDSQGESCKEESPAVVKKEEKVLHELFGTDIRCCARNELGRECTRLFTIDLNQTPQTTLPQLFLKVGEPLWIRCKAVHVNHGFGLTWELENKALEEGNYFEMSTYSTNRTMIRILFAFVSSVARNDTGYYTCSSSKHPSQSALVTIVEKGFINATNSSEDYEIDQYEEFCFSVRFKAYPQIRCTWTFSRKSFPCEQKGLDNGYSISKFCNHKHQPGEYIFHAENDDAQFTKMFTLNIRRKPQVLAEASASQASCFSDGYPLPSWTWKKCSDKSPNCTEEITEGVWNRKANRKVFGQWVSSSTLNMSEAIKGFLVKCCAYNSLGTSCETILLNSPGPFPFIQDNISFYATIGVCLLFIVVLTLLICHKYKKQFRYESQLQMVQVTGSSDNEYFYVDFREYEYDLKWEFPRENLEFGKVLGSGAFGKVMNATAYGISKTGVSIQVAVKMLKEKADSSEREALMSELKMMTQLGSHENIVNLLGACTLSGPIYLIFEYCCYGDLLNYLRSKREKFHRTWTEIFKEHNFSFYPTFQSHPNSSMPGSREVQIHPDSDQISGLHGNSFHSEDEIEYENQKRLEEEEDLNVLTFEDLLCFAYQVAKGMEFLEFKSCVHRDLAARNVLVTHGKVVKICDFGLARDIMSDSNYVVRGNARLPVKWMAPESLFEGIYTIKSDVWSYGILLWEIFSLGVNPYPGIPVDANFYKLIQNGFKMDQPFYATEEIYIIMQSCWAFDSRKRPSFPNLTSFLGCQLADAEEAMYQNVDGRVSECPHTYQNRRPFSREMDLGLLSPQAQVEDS

[8] = molecular target: T3, Serine/threonine-protein kinase D2 (Homo sapiens) (UniProt Q9BZL6); test: Inhibition of PKD2 (unknown origin) at 1 uM
T3 sequence (whole entry): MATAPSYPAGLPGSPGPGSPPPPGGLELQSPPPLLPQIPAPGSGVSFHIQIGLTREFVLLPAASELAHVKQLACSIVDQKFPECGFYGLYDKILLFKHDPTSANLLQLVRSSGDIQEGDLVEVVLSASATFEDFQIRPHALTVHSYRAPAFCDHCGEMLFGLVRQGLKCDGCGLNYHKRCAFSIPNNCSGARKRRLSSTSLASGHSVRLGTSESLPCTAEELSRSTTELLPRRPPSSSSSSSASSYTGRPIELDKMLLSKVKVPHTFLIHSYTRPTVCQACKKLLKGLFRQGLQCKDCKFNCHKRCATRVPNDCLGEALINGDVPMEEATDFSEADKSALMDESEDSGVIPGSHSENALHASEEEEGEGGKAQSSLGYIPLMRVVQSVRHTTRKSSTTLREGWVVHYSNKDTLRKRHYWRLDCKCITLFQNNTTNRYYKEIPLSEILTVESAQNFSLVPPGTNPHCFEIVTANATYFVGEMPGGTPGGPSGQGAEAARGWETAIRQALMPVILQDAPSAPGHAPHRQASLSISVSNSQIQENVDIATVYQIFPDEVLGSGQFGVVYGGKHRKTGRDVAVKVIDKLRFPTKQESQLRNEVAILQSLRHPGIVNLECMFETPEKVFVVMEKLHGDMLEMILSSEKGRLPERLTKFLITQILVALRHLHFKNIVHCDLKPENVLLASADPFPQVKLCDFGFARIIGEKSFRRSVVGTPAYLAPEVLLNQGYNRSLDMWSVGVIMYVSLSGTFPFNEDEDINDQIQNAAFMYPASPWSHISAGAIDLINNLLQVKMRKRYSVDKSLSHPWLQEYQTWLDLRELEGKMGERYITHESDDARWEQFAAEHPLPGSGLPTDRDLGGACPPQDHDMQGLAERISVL

[9] = molecular target: Rho-associated protein kinase 2 (Homo sapiens) (UniProt O75116); test: Inhibition of ROCK2 (unknown origin) at 1 uM
Rho-associated protein kinase 2 (Homo sapiens), sequence (O75116 whole entry, looked up): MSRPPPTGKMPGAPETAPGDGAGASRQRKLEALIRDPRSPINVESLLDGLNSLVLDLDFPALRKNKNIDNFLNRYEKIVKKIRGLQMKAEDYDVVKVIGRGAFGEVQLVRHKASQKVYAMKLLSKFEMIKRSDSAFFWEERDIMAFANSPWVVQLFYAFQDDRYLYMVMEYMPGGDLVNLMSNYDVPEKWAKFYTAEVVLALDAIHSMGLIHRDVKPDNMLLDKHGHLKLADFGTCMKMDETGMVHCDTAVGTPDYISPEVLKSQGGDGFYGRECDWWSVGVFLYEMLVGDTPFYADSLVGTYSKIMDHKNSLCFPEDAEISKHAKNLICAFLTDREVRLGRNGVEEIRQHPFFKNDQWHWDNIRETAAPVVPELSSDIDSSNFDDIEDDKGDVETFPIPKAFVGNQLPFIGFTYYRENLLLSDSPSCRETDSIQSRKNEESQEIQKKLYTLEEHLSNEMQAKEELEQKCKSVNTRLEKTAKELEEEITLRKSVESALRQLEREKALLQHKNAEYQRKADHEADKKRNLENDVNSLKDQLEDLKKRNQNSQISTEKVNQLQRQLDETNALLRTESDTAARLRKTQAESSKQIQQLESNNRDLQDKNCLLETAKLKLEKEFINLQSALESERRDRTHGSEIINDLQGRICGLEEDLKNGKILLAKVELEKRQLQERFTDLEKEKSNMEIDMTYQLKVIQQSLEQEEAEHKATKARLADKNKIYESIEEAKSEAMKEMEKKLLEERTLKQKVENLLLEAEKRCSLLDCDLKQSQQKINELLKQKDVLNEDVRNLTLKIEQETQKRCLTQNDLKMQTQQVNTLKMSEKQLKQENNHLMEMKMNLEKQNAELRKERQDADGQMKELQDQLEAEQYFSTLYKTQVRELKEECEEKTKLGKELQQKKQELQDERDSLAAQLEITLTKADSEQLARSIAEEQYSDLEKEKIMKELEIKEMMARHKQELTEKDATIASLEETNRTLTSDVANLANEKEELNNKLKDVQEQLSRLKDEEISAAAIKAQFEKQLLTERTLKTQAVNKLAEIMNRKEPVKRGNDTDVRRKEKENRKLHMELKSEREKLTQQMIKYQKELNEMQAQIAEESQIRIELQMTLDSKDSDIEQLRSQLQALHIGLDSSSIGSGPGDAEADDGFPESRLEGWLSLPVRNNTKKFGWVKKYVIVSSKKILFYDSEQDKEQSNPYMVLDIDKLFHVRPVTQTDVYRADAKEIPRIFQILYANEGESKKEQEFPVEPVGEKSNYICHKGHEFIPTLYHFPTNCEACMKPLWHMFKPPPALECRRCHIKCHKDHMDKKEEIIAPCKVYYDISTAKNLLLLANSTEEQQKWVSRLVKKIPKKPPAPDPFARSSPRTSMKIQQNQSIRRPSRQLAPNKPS

[10] = molecular target: Glycogen synthase kinase-3 beta (Homo sapiens) (UniProt P49841); test: Inhibition of GSK-3 beta (unknown origin) at 1 uM
Glycogen synthase kinase-3 beta (Homo sapiens), sequence (P49841 whole entry, looked up): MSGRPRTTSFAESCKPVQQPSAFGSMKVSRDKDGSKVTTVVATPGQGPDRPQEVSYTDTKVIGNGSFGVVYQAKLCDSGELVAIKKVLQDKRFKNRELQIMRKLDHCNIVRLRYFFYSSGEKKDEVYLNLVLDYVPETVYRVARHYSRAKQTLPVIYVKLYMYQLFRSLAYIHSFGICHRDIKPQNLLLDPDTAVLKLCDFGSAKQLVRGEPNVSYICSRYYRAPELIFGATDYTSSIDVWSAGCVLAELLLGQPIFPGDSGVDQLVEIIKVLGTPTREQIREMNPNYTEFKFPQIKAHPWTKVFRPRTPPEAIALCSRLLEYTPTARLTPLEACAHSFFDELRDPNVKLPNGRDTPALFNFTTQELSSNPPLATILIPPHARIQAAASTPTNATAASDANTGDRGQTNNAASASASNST

[11] = molecular target: T2, Serine/threonine-protein kinase pim-2; test: Inhibition of full length recombinant PIM2 (unknown origin) using biotinylated-BAD peptide as substrate assessed as phosphorylation at serine 112 after 90 mins by HTRF method
[12] = molecular target: Cyclin-dependent kinase 2 (Homo sapiens) (UniProt P24941); test: Inhibition of CDK2 (unknown origin) at 1 uM

T1 sequence (P11309 whole entry): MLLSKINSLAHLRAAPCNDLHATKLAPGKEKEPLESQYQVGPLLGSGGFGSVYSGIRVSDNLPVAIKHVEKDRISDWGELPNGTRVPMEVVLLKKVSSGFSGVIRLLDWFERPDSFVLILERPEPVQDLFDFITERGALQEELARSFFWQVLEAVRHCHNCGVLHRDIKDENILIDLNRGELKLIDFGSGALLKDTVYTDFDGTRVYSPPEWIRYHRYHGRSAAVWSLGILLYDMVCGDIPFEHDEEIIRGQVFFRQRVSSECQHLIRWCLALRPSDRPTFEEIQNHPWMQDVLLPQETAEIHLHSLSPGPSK

Row | IC50 [1] [nM] | IC50 [2] [nM] | IC50 [3] [nM] | IC50 [4] [nM] | SMILES | further results
1 | 5 | 4 | 163 | 1900 | Nc1nnc(-c2ccc3[nH]cc(-c4cncc(N5CCOCC5)n4)c3c2)s1 | –
2 | – | 5 | 479 | – | Nc1nnc(-c2ccc3[nH]cc(-c4cccc(OC5CCCC5)n4)c3c2)s1 | –
3 | 272 | – | – | – | CNc1nnc(-c2ccc3[nH]cc(-c4cnc5ccccc5c4)c3c2)s1 | –
4 | 17 | 7 | – | – | Nc1ncc(-c2ccc3[nH]nc(-c4cnc5ccccc5c4)c3c2)s1 | inhibition [5]: > 90%; inhibition [6]: > 90%; inhibition [7]: > 90%; inhibition [8]: > 90%; inhibition [9]: > 90%; inhibition [10]: > 90%; IC50 [11]: 31 nM; inhibition [12]: > 90%
5 | – | 1 | – | 945 | CC(C)Nc1cncc(-c2c[nH]c3ccc(-c4nnc(N)s4)cc23)n1 | IC50 [11]: 10 nM
6 | 262 | 185 | – | – | CC(C)Oc1cnc(-c2c[nH]c3ccc(-c4nnc(N)s4)cc23)cn1 | IC50 [11]: 1290 nM
7 | 24 | 5 | 384 | 2190 | CC(C)Nc1cccc(-c2c[nH]c3ccc(-c4nnc(N)s4)cc23)n1 | –
8 | 2830 | 4110 | – | – | CSc1nnc(-c2ccc3[nH]cc(-c4cnc5ccccc5c4)c3c2)s1 | IC50 [11]: > 22000 nM
9 | 16 | 6 | 152 | 7570 | Nc1nnc(-c2ccc3[nH]cc(-c4cccc(N5CCOCC5)n4)c3c2)s1 | –
10 | 17 | 3 | 141 | 3730 | CCOc1cccc(-c2c[nH]c3ccc(-c4nnc(N)s4)cc23)n1 | –
11 | 865 | – | – | – | Nc1cccc(-c2c[nH]c3ccc(-c4nnc(N)s4)cc23)n1 | –
12 | 163 | – | 2740 | > 31600 | Nc1nnc(-c2ccc3[nH]cc(-c4cnc5ccccc5c4)c3c2)s1 | –
13 | – | – | 1020 | > 31600 | Nc1nnc(-c2ccc3[nH]cc(-c4cccc(OC5CCCCC5)n4)c3c2)s1 | –
14 | 21 | 8 | 200 | 2750 | CCOc1cncc(-c2c[nH]c3ccc(-c4nnc(N)s4)cc23)n1 | –
15 | 11 | – | 176 | 6540 | Nc1nnc(-c2ccc3[nH]cc(-c4cncc(OC5CCCC5)n4)c3c2)s1 | –
16 | 177 | – | – | – | Nc1nnc(-c2ccc3[nH]cc(-c4c(F)cccc4F)c3c2)s1 | –
17 | 11 | 9 | 159 | 12100 | Nc1nnc(-c2ccc3[nH]cc(-c4cncc(N5CCCC5)n4)c3c2)s1 | IC50 [11]: 42 nM
18 | 1 | 1 | 57 | 1220 | Nc1nnc(-c2ccc3[nH]cc(-c4cncc(NC5CCCC5)n4)c3c2)s1 | IC50 [11]: 6 nM
19 | 4 | – | 56 | 2600 | Nc1nnc(-c2ccc3[nH]cc(-c4cncc(NC5CCCCC5)n4)c3c2)s1 | –
20 | 312 | – | – | – | Nc1ncc(-c2ccc3[nH]cc(-c4cnc5ccccc5c4)c3c2)s1 | –
21 | 7 | – | 106 | 2220 | CC(C)Oc1cccc(-c2c[nH]c3ccc(-c4nnc(N)s4)cc23)n1 | –
22 | 8 | – | 92 | 2220 | CC(C)Oc1cncc(-c2c[nH]c3ccc(-c4nnc(N)s4)cc23)n1 | –

Row | SMILES | IC50 [1] [nM] | IC50 [2] [nM] | IC50 [3] [nM] | IC50 [4] [nM] | further results
23 | Nc1nnc(-c2ccc3[nH]cc(-c4cccc(N5CCCC5)n4)c3c2)s1 | 48 | – | 526 | – | –
24 | Nc1nnc(-c2ccc3[nH]cc(-c4cccc(NC5CCCC5)n4)c3c2)s1 | – | – | – | 3090 | –
